We go through 13 molecules from patent publication US11584775B2, “C4-modified oleanolic acid derivatives for inhibition of IL-17 and other uses” (REATA PHARMACEUTICALS, INC., priority 2015, dated 2023).

SMILES strings stand for the structures.

One experiment has as its target T1, human RORγ (Homo sapiens, UniProt P51449).
T1 sequence (P51449 269-508 limits assumed): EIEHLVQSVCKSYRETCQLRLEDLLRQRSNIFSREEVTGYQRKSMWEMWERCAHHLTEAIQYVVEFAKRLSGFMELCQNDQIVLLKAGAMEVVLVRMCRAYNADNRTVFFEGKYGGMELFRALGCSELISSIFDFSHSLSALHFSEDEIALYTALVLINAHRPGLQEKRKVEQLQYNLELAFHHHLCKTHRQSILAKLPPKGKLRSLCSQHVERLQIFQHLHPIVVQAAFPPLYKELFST
The experiment in a line: RORγ assay (GAL4-RORγ hybrid luciferase reporter, inverse-agonist activity). In kind it is cell-based. The following applies: GAL4-RORγ hybrid reporter cells, 23 hours. The method, boiled down:
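Human cell line expressing GAL4-DBD/RORγ hybrid with UAS-driven luciferase, treated in triplicate with compound (0.4–200 nM or 2–1000 nM) for 23 h at 37 °C. Luminescence normalized to DMSO; viability measured in parallel by multiplex assay. IC50 for RORγ and viability by variable-slope nonlinear regression.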
For orientation: A reporter such as luciferase makes a cellular process visible.

In the next experiment the test system is hIL17. The experiment in a line: IL-17 release from differentiated primary human T-cells (IL-17A HTRF assay). It is filed as cell-based. The settings on record: inhibition of IL-17A levels; primary human CD4+ T cells differentiated into Th17 cells, 46-hour incubation. The method, boiled down:
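Cryopreserved primary human CD4+ T cells were activated with anti-CD3/CD28 beads and driven to Th17 with TGF-β, IL-6, IL-23 and IL-1β in the presence of compound (2-500 nM or 4-1000 nM) for 46 h at 37° C. Supernatant IL-17A was quantified by HTRF against a standard curve and normalized to DMSO. IC50s came from variable-slope fits, with viability read by CyQuant.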
(TR-FRET usually uses a lanthanide donor and a delayed reading to cut background.)

The subject of experiment [1] is IFNγ-induced Nitric Oxide production. The experiment in a line: Nitric oxide production assay in RAW 264.7 mouse macrophages. It is filed as cell-based. The following applies: RAW264.7, suppression of IFNγ-induced NO production normalized to cell viability (WST-1), RAW 264.7, 24 hours IFNγ. In outline: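 Cells pre-treated 2 h with compound (0.4-200 nM or 2-1000 nM) in RPMI 1640 + 0.5% FBS, then stimulated with recombinant mouse IFNγ for 24 h at 37 °C. Nitrite measured by Griess reagent, viability by WST-1; IC50 from NO suppression normalized to viability and to DMSO/IFNγ controls.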
(Formazan colour is commonly taken as a measure of viable cells.)

A further experiment concerns NRF2. Kind of experiment: AREc32 luciferase reporter assay. In kind it is cell-based, human. The settings on record: EC2×: concentration required to increase GST ARE Luciferase reporter activity by 2-fold; AREc32 cells, 19 hours. The method, boiled down:
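AREc32 cells (MCF-7 stably carrying eight rat GSTA2 ARE copies driving firefly luciferase) treated 19 h with compound (0.4–200 nM or 2–1000 nM), triplicate. Luminescence normalized to DMSO as fold-induction; variable-slope fit capped at 50-fold; EC2× = concentration giving 2-fold induction.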

As to `COC(=O)[C@]12CCC(C)(C)C[C@H]1[C@H]1C(=O)C=C3[C@@]4(C)C=C(C#N)C(=O)[C@@](C)(CCO[Si](C)(C)C(C)(C)C)[C@@H]4CC[C@@]3(C)[C@]1(C)CC2` [Compound T18, methyl (4aS,6aR,6bS,8aR,9S,12aS,14aR,14bS)-9-(2-((tert-butyldimethylsilyl)oxy)ethyl)-11-cyano-2,2,6a,6b,9,12a-hexamethyl-10,14-dioxo-1,3,4,5,6,6a,6b,7,8,8a,9,10,12a,14,14a, 14b-hexadecahydropicene-4a(2H)-carboxylate], the IC50 worked out at 583 nM at human RORγ, 24 nM in the experiment on hIL17 and 78.5 nM in experiment [1]. In addition, the “EC2x: concentration giving 2-fold induction of ARE luciferase reporter” value in the experiment on NRF2 is 585 nM.
As to `COC(=O)[C@]12CCC(C)(C)C[C@H]1[C@H]1C(=O)C=C3[C@@]4(C)C=C(C#N)C(=O)[C@@](C)(CO)[C@@H]4CC[C@@]3(C)[C@]1(C)CC2` [Comparison Compound #300, reference compound], the values for the IC50 (at human RORγ; in the experiment with hIL17; in experiment [1]) were 152 nM, 18 nM and 7.4 nM, respectively. The “EC2x: concentration giving 2-fold induction of ARE luciferase reporter” value in the experiment on NRF2 is on record as 34 nM.
For `COC(=O)[C@]12CCC(C)(C)C[C@H]1[C@H]1C(=O)C=C3[C@@]4(C)C=C(C#N)C(=O)[C@@](C)(CCO)[C@@H]4CC[C@@]3(C)[C@]1(C)CC2` [Compound T19], in that order: 233 nM, 15 nM, 17.4 nM and 76 nM.
Turning to `CC1(C)CC[C@@]23CC[C@@]4(C)[C@]5(C)CC[C@@H]6[C@](C)(C=C(C#N)C(=O)[C@@]6(C)CO)C5=CC(=O)[C@]4(OC2=O)[C@@H]3C1` [Compound T31, (4R,4aR,6aR,6bS,8aS,12aR,12bS,14bS)-4-(hydroxymethyl)-4,6a,6b, 11,11,14b-hexamethyl-3,13,16-trioxo-4,4a,5,6,6a,6b,7,8,10,11,12,12a,13,14b-tetradecahydro-3H,9H-12b,8a-(epoxymethano)picene-2-carbonitrile], the half-maximal inhibitory concentration (IC50) came to 177 nM at human RORγ, 20 nM with hIL17 and 10.5 nM in experiment [1]. For the same molecule, in the experiment with NRF2, the “EC2x: concentration giving 2-fold induction of ARE luciferase reporter” value stood at 21 nM.
As for `CC(=O)OC[C@]1(C)C(=O)C(C#N)=C[C@]2(C)C3=CC(=O)[C@@H]4[C@@H]5CC(C)(C)CC[C@]5(NC(=O)C(C)(F)F)CC[C@@]4(C)[C@]3(C)CC[C@H]21` [Compound T29, ((4R,4aR,6aS,6bR,8aS,12aS,12bR,14bS)-2-cyano-8a-(2,2-difluoropropanamido)-4,6a,6b,11,11,14b-hexamethyl-3,13-dioxo-3,4,4a,5,6,6a,6b,7,8,8a,9,10,11,12,12a,12b,13,14b-octadecahydropicen-4-yl)methyl acetate], the IC50 worked out at 141 nM at human RORγ, 37 nM in the experiment with hIL17 and 118 nM in experiment [1]. For the same molecule, in the experiment on NRF2, the “EC2x: concentration giving 2-fold induction of ARE luciferase reporter” value was 360 nM.
Regarding `COC(=O)[C@]12CCC(C)(C)C[C@H]1[C@H]1C(=O)C=C3[C@@]4(C)C=C(C#N)C(=O)[C@@](C)(c5nnc(C)o5)[C@@H]4CC[C@@]3(C)[C@]1(C)CC2` [Compound T16, methyl (4aS,6aR,6bS,8aR,9R,12aS,14aR,14bS)-11-cyano-2,2,6a,6b,9,12a-hexamethyl-9-(5-methyl-1,3,4-oxadiazol-2-yl)-10,14-dioxo-1,3,4,5,6,6a,6b,7,8,8a,9,10,12a,14,14a,14b-hexadecahydropicene-4a(2H)-carboxylate], the IC50 at human RORγ worked out at 406 nM; in the experiment with hIL17 it was 92 nM; in experiment [1] it was 615 nM. Also, in the experiment on NRF2, the “EC2x: concentration giving 2-fold induction of ARE luciferase reporter” value is listed as above 1000 nM.
For `COC(=O)[C@]12CCC(C)(C)C[C@H]1[C@H]1C(=O)C=C3[C@@]4(C)C=C(C#N)C(=O)[C@@](C)(COC(C)=O)[C@@H]4CC[C@@]3(C)[C@]1(C)CC2` [Compound T8, methyl (4aS,6aR,6bS,8aR,9R,12aS,14aR,14bS)-9-(acetoxymethyl)-11-cyano-2,2,6a,6b,9,12a-hexamethyl-10,14-dioxo-1,3,4,5,6,6a,6b,7,8,8a,9,10,12a,14,14a,14b-hexadecahydropicene-4a(2H)-carboxylate], the IC50 stood at 109 nM on human RORγ, 24 nM with hIL17 and 74.6 nM in experiment [1]. Besides, the “EC2x: concentration giving 2-fold induction of ARE luciferase reporter” value in the experiment on NRF2 is 276 nM.
For the molecule `COC(=O)[C@]12CCC(C)(C)C[C@H]1[C@H]1C(=O)C=C3[C@@]4(C)C=C(C#N)C(=O)[C@@](C)(N)[C@@H]4CC[C@@]3(C)[C@]1(C)CC2` [Compound T11, methyl (4aS,6aR,6bS,8aR,9S,12aS,14aR,14bS)-9-amino-11-cyano-2,2,6a,6b,9,12a-hexamethyl-10,14-dioxo-1,3,4,5,6,6a,6b,7,8,8a,9,10,12a,14,14a,14b-hexadecahydropicene-4a(2H)-carboxylate], the IC50 at human RORγ came to 146 nM; in the experiment on hIL17 it was 75 nM; in experiment [1] it was 601 nM. Moreover, the “EC2x: concentration giving 2-fold induction of ARE luciferase reporter” value in the experiment with NRF2 worked out at 477 nM.
As to `C[C@@H]1C(=O)C(C#N)=C[C@]2(C)C3=CC(=O)[C@@H]4[C@@H]5CC(C)(C)CC[C@]5(NC(=O)C(C)(F)F)CC[C@@]4(C)[C@]3(C)CC[C@@H]12` [Comparison Compound #4, reference compound], the values for the IC50 (on human RORγ; with hIL17; in experiment [1]) were 177 nM, 38 nM and 0.6 nM, respectively. Also, the “EC2x: concentration giving 2-fold induction of ARE luciferase reporter” value with NRF2 is on record as 11 nM.
In the case of `COC(=O)[C@]12CCC(C)(C)C[C@H]1[C@H]1C(=O)C=C3[C@@]4(C)C=C(C#N)C(=O)[C@](C)(CO)[C@@H]4CC[C@@]3(C)[C@]1(C)CC2` [Comparison Compound #301, reference compound], the concentration for half-maximal inhibition (IC50) on human RORγ worked out at 144 nM; in the experiment with hIL17 it was 17 nM; in experiment [1], 1.8 nM. The “EC2x: concentration giving 2-fold induction of ARE luciferase reporter” value with NRF2 turned out to be 8 nM.
Consider `CC(=O)OC[C@]1(C)C(=O)C(C#N)=C[C@]2(C)C3=CC(=O)[C@@H]4[C@@H]5CC(C)(C)CC[C@]5(c5nnc(C)o5)CC[C@@]4(C)[C@]3(C)CC[C@H]21` [Compound T43, ((4R,4aR,6aS,6bR,8aS,12aS,12bR,14bS)-2-cyano-4,6a,6b, 11,11,14b-hexamethyl-8a-(5-methyl-1,3,4-oxadiazol-2-yl)-3,13-dioxo-3,4,4a,5,6,6a,6b,7,8,8a,9,10,11,12,12a,12b,13,14b-octadecahydropicen-4-yl)methyl acetate], for which the IC50 at human RORγ is 146 nM; in the experiment with hIL17, 46 nM; in experiment [1] it was 110 nM. In addition, the “EC2x: concentration giving 2-fold induction of ARE luciferase reporter” value in the experiment on NRF2 worked out at 369 nM.
With `COC(=O)[C@]12CCC(C)(C)C[C@H]1[C@H]1C(=O)C=C3[C@@]4(C)C=C(C#N)C(=O)[C@@](C)(NC(C)=O)[C@@H]4CC[C@@]3(C)[C@]1(C)CC2` [Compound T12, methyl (4aS,6aR,6bS,8aR,9S,12aS,14aR,14bS)-9-acetamido-11-cyano-2,2,6a,6b,9,12a-hexamethyl-10,14-dioxo-1,3,4,5,6,6a,6b,7,8,8a,9,10,12a,14,14a,14b-hexadecahydropicene-4a(2H)-carboxylate], the IC50 is 419 nM on human RORγ, 81 nM in the experiment with hIL17 and above 1000 nM in experiment [1]. The “EC2x: concentration giving 2-fold induction of ARE luciferase reporter” value in the experiment on NRF2 was above 1000 nM.
As to `Cc1noc([C@]23CCC(C)(C)C[C@H]2[C@H]2C(=O)C=C4[C@@]5(C)[C@H]6O[C@@]6(C#N)C(=O)[C@@](C)(O)[C@@H]5CC[C@@]4(C)[C@]2(C)CC3)n1` [Compound T49, (1 aR,3S,3aR,5aS,5bR,7aS,11aS,11bR,13bS,13cR)-3-hydroxy-3,5a,5b, 10,10,13b-hexamethyl-7a-(3-methyl-1,2,4-oxadiazol-5-yl)-2,12-dioxo-3,3a,4,5,5a,5b,6,7,7a,8,9,10,11,11a,11b,12,13b,13c-octadecahydropiceno[1,2-b]oxirene-1a(2H)-carbonitrile], the IC50 on human RORγ amounted to 608 nM; with hIL17 it was 18 nM; in experiment [1] it was 37.5 nM. Moreover, the “EC2x: concentration giving 2-fold induction of ARE luciferase reporter” value with NRF2 is listed as 244 nM.

The IC50 is the concentration that inhibits the measured activity by half.
